Literature values in US20080181937A1, “DOSAGE REGIMEN AND MEDICAMENT FOR GUARDING MEMORY AND BRAIN HEALTH AND FOR PREVENTING OR REDUCING RISK OF ONSET OF DEMENTIA BY ADMINISTRATION OF SPECIFIC VITAMINS AND SUPPLEMENTS (MEMOGUARD)” (priority 2007, published 2008).

How the values were obtained:
[1] = tested on: patients with marked memory loss at risk for developing Alzheimer's disease
[2] = tested on: animal model of rheumatoid arthritis
amyloid = conditions: in vivo
[3] = tested on: normal healthy subjects and the elderly; conditions: fish 2-3 times a week or supplements

**Q.** For `COc1cc2c(cc1OC)C(=O)C(CC1CCN(Cc3ccccc3)CC1)C2` (centres unmarked) [Aricept], which “prevention of the onset of Alzheimer's disease” value [1] is on record?
**A.** The value was “Neither of these drugs were shown to significantly prevent the onset”.

**Q.** For `COc1cc(/C=C/C(=O)CC(=O)/C=C/c2ccc(O)c(OC)c2)ccc1O` [Curcumin], which inflammation [2] is on record?
**A.** The inflammation was “can reduce inflammation”.

**Q.** Which “amount of amyloid in the brain” value (amyloid) does the source give for `CC/C=C\C/C=C\C/C=C\C/C=C\C/C=C\C/C=C\CCC(=O)O` [DHA] here?
**A.** The value was “can reduce the amount of amyloid in the brain”.

**Q.** What about the memory and attention ([3]; normal healthy subjects) of the same molecule?
**A.** Its memory and attention is “increases memory and attention”.

**Q.** And the “risk of Alzheimer's” value ([3]; the elderly)?
**A.** Its value is “significantly lowers the risk of Alzheimer's”.

**Q.** With `COc1ccc2c3c1O[C@H]1C[C@@H](O)C=C[C@@]31CCN(C)C2` [Razadyne] as the molecule, how does the “prevention of the onset of Alzheimer's disease” value [1] read?
**A.** The value was “Neither of these drugs were shown to significantly prevent the onset”.

**Q.** With `CC(C)Cc1ccc(C(C)C(=O)O)cc1` (centres unmarked) [ibuprofen] as the molecule, how does the “incidence of Alzheimer's disease” value (elderly patients; observational studies, individuals taking NSAID's) read?
**A.** The value was “lower incidence of Alzheimer's disease”.

**Q.** Which “transfer to a nursing home” value (elderly patients; patients with cognitive impairment or dementia) does the source give for vitamin E here?
**A.** Its value is “can even delay transfer to a nursing home”.
